We go through two compounds from PubChem BioAssay AID1963825 (Molecular Pharmacology Branch, DTP, NCI, 2024).

Several values for one entry are separate records, joined by “and”; a condition that tells them apart may be missing. Equal entries are not always repeated. Where only a bound is given, the exact number is not on record here.

What is called viability, T/C is the result in the treated group divided by that in the control group, in per cent. In general, IC50 refers to the midpoint of a concentration-inhibition curve.

The nature of this experiment: Anticancer human tumor 997537-175-T-J1-PDC patient-derived colon adenocarcinoma cell line growth inhibition [POLQ]. To be noted: 997537-175-T-J1-PDC complex spheroid viability, combination with POLQ inhibitors; for viability, T/C: stronger effect = lower value; for IC50: curve of compound. How it is done:
Multicellular complex tumor spheroid response to Polymerase (POL) inhibitors (novobiocin, ART-558, RP6685) in combination with a variety of drugs and investigational agents in selected tumor cell lines
The POL inhibitors (novobiocin, ART-558, and RP6685) were evaluated both individually and in combination with standard of care and investigational anticancer small molecules within a complex spheroid model of solid tumors. . Complex spheroids include a stromal component modeled by human endothelial cells (HUVEC) and fibroblasts modeled by human mesenchymal stem cells (MSCs). The concentration ranges selected for each drug and investigational agent were based upon clinically achievable concentrations if the clinical Cmax of the agent was known.
Compounds. The drugs and investigational agents: novobiocin (NSC847541), ART-558 (NSC835418), RP-6685 (NSC848927), peposertib (NSC802822), ceralasertib (NSC780249), elimusertib (NSC800525), camonsertib (NSC841442), AZD-1390 (NSC803789), olaparib (NSC753686), talazoparib (NSC767125), rucaparib (NSC756644), sotorasib (NSC818433), MRTX-1133 (NSC836407), SN-38 (NSC673596), topotecan (NSC609699), epotoside (NSC141540), doxorubicin (NSC123127), gemcitabine (NSC613327), 5-fluorouracil (NSC19893), paclitaxel (NSC125973), vemurafenib (NSC761431), MSA-2 (NSC828583), SN-011 (NSC837082), adavosertib (NSC754352), prexasertib (NSC758257), carboplatin (NSC241240) and oxaliplatin (NSC266046), were obtained from the National Cancer Institute (NCI) Developmental Therapeutics Program Chemical Repository (21). The FDA-approved anticancer drug set is available from the Developmental Therapeutics Program at https://dtp.cancer.gov/organization/dscb/obtaining/. […] The stock solutions were prepared in dimethyl sulfoxide (DMSO, Sigma-Aldrich, St. Louis, MO, cat. D2650), except for the platinum compounds which were prepared in saline (Quality Biological, Gaithersburg, MD, cat. 114-055-101), at 800-fold the tested concentration and stored at -70 degrees C prior to their use. All drugs and investigational agents were tested over a range starting from a high concentration at or near the clinical Cmax and decreasing in half-log increments. If the clinical Cmax for an agent had not been determined, the highest concentration tested was 10 microM, except for SN-38, which was tested at a high concentration of 1 microM.
Cell Culture. All cells were maintained in an incubator at 37 degrees C and 5% CO2 with 95% humidity. The PDC lines were cultured according to standard operating procedures established by the NCI PDMR (https://pdmr.cancer.gov). Table 3 of the manuscript, lists the cell lines along with the number of the three cell types plated to form the mct-spheroids and media for tumor cell growth. After thawing, all PDC lines, except 997537-175-T-J1-PDC and 415267-285-R-J2-PDC, were cultured in Matrigel-coated flasks prepared with a working solution of 1X Ham's F-12 nutrient mix, without supplementation (Thermo Fisher Scientific, cat. 11765054), 100 U/mL penicillin-streptomycin (Thermo Fisher Scientific, cat. 15140122), and 2.5% Matrigel (Corning Inc., Corning, NY, cat. 354248) for the first three passages. The two PDC lines 997537-175-T-J1-PDC and 415267-285-R-J2-PDC were cultured on uncoated flasks. The 857933-349-R-J2-PDC line was cultured in 6C/Colon 1B media containing advanced DMEM/F-12 (Thermo Fisher Scientific, cat. 12634028), 10 mM HEPES (Thermo Fisher Scientific, cat. 15630080), 1X GlutaMAX supplement (Thermo Fisher Scientific, cat. 35050061), 0.1 mg/mL primocin (InvivoGen, San Diego, CA, cat. ant-pm-2), 10% defined fetal bovine serum, heat inactivated (HyClone Laboratories Inc., Logan, UT, cat. SH30070.03HI), 50% L-WRN conditioned media (ATCC, cat. CRL-3276), 1.25 mM N-Acetyl-L-cysteine (Sigma-Aldrich, cat. A9165), 10 mM nicotinamide (Sigma-Aldrich, cat. N0636), 1X B-27 supplement (Thermo Fisher Scientific, cat. 17504044), 1X N-2 supplement (Thermo Fisher Scientific, cat. […]
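Also: luminescence signal used as a surrogate for viable cells; spheroids exposed to drugs for seven days before readout.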

Regarding `CC(=O)O[C@H]1C(=O)[C@@]2(C)[C@H]([C@H](OC(=O)c3ccccc3)[C@]3(O)C[C@H](OC(=O)[C@H](O)[C@@H](NC(=O)c4ccccc4)c4ccccc4)C(C)=C1C3(C)C)[C@]1(OC(C)=O)CO[C@@H]1C[C@@H]2O`, the half-inhibitory concentration (IC50) was 12.5 nM and 20.7 nM and < 9.49 nM. In addition, the viability, T/C (compound 0.00949 µM) is 55.5% and 66.9% and 49.9%. For the same compound, under “compound 0.03 µM”, the viability, T/C was 33.4% and 42.3% and 41.3%. In addition, under “compound 0.0949 µM”, the viability, T/C was 22.8% and 35.5% and 38.7%. The viability, T/C (compound 0.3 µM) was 32.1% and 41.2% and 22.7%. Where the note is “compound 0.949 µM”, the viability, T/C is 32% and 28.6% and 22%. In addition, the viability, T/C (compound 3 µM) is 30.9% and 40.5% and 33.2%.

For `CCc1cc2c(N3CCc4c(cc(Cn5ccnc5)cc4-c4cn(C)nc4C(F)(F)F)C3=O)cc(C)nc2c(OC)n1`, the IC50 is > 10000 nM and 6970 nM. Also, the viability, T/C (compound 0.0316 µM) is 90.5% and 98.7% and 107%. The viability, T/C (compound 0.1 µM) is 95.7% and 82% and 107%. Also, the viability, T/C (compound 0.316 µM) is 90.7% and 71.5% and 94.3%. Further, for the setting “compound 1 µM”, the viability, T/C was 78.7% and 91.3% and 92.2%. The viability, T/C (compound 3.16 µM) is 69.9% and 86.2% and 67.7%. Moreover, under “compound 10 µM”, the viability, T/C is 58% and 61.9% and 41.5%.
